Test results from US9707305B2, “Formulas for diagnosing and treating hormone-dependent cancers and cancers of the organs responsible for steroid hormone synthesis” (Commissariat à l'énergie atomique et aux énergies …, priority 2011, dated 2017).

Assay: Biodistribution of the mixture of three free tracers (not formulated as nano-emulsion), comparative
Assay type: in vivo
Details: FVB female mouse
Method: In the following examples, the radioactivity was counted with the TRiCarb Counter (Ref: Packard, Liquid Scintillation Analyzers; Models 2200CA).
Fluobeam 700 (Fluoptics) is the apparatus with which the whole of the organs from the biodistribution were analyzed in fluorescence as well as the one with which the biodistribution kinetics of the nano-emulsions were established in vivo. This imaging system allows viewing of the fluorescence in spectral bands from 700 to 850 nm for a 650 nm excitation. The apparatus consists of an electric case containing the laser of class 3B, its power supply and an optical head containing the CCD camera.
As a comparison, a mixture of three tracers ([3H]CHE, [14C]CO and DiD) (not formulated as a nano-emulsion) was injected in order to observe the distribution of the tracers in the absence of droplets being used as a distribution carrier.

[1] = 2 h after injection of free tracers (not nano-emulsion)
[2] = 6 h after injection of free tracers (not nano-emulsion)
[3] = 16 h after injection of free tracers (not nano-emulsion)
[4] = 24 h after injection of free tracers (not nano-emulsion)

SMILES: CCCCCCCCCCCCCCCCO[C@H]1CC[C@@]2(C)C(=CC[C@H]3[C@@H]4CC[C@H]([C@H](C)CCCC(C)C)[C@@]4(C)CC[C@@H]32)C1 [[3H]CHE, cholesteryl hexadecylether]
- biodistribution, Adrenal glands (MEAN) [1]: 0.17 % of injected dose per gram of
- biodistribution, Brain (MEAN) [1]: 0.00 % of injected dose per gram of
- biodistribution, Fat (MEAN) [1]: 0.02 % of injected dose per gram of
- biodistribution, Heart (MEAN) [1]: 0.08 % of injected dose per gram of
- biodistribution, Intestine (MEAN) [1]: 0.03 % of injected dose per gram of
- biodistribution, Kidney (MEAN) [1]: 0.09 % of injected dose per gram of
- biodistribution, Liver (MEAN) [1]: 1.76 % of injected dose per gram of
- biodistribution, Lung (MEAN) [1]: 29.10 % of injected dose per gram of
- biodistribution, Muscle (MEAN) [1]: 0.04 % of injected dose per gram of
- biodistribution, Ovary (MEAN) [1]: 0.04 % of injected dose per gram of
- biodistribution, Pancreas (MEAN) [1]: 0.05 % of injected dose per gram of
- biodistribution, Salivary gland (MEAN) [1]: 0.01 % of injected dose per gram of
- biodistribution, Spleen (MEAN) [1]: 1.55 % of injected dose per gram of
- biodistribution, Uterus (MEAN) [1]: 0.02 % of injected dose per gram of
- biodistribution, Adrenal glands (MEAN) [2]: 0.36 % of injected dose per gram of
- biodistribution, Brain (MEAN) [2]: 0.02 % of injected dose per gram of
- biodistribution, Fat (MEAN) [2]: 0.05 % of injected dose per gram of
- biodistribution, Heart (MEAN) [2]: 0.30 % of injected dose per gram of
- biodistribution, Intestine (MEAN) [2]: 0.15 % of injected dose per gram of
- biodistribution, Kidney (MEAN) [2]: 0.41 % of injected dose per gram of
- biodistribution, Liver (MEAN) [2]: 3.23 % of injected dose per gram of
- biodistribution, Lung (MEAN) [2]: 83.99 % of injected dose per gram of
- biodistribution, Muscle (MEAN) [2]: 0.03 % of injected dose per gram of
- biodistribution, Ovary (MEAN) [2]: 0.07 % of injected dose per gram of
- biodistribution, Pancreas (MEAN) [2]: 0.09 % of injected dose per gram of
- biodistribution, Salivary gland (MEAN) [2]: 0.09 % of injected dose per gram of
- biodistribution, Uterus (MEAN) [2]: 0.04 % of injected dose per gram of
- biodistribution, Adrenal gland (MEAN) [3]: 0.47 % of injected dose per gram of
- biodistribution, Brain (MEAN) [3]: 0.02 % of injected dose per gram of
- biodistribution, Fat (MEAN) [3]: 0.02 % of injected dose per gram of
- biodistribution, Heart (MEAN) [3]: 0.35 % of injected dose per gram of
- biodistribution, Intestine (MEAN) [3]: 0.13 % of injected dose per gram of
- biodistribution, Kidney (MEAN) [3]: 0.53 % of injected dose per gram of
- biodistribution, Liver (MEAN) [3]: 6.95 % of injected dose per gram of
- biodistribution, Lung (MEAN) [3]: 124.35 % of injected dose per gram of
- biodistribution, Muscle (MEAN) [3]: 0.05 % of injected dose per gram of
- biodistribution, Ovary (MEAN) [3]: 0.19 % of injected dose per gram of
- biodistribution, Pancreas (MEAN) [3]: 0.04 % of injected dose per gram of
- biodistribution, Salivary gland (MEAN) [3]: 0.05 % of injected dose per gram of
- biodistribution, Spleen (MEAN) [3]: 4.17 % of injected dose per gram of
- biodistribution, Uterus (MEAN) [3]: 0.03 % of injected dose per gram of
- biodistribution, Adrenal gland (MEAN) [4]: 0.31 % of injected dose per gram of
- biodistribution, Brain (MEAN) [4]: 0.03 % of injected dose per gram of
- biodistribution, Fat (MEAN) [4]: 1.42 % of injected dose per gram of
- biodistribution, Heart (MEAN) [4]: 0.12 % of injected dose per gram of
- biodistribution, Intestine (MEAN) [4]: 0.07 % of injected dose per gram of
- biodistribution, Kidney (MEAN) [4]: 1.12 % of injected dose per gram of
- biodistribution, Liver (MEAN) [4]: 1.12 % of injected dose per gram of
- biodistribution, Lung (MEAN) [4]: 6.37 % of injected dose per gram of
- biodistribution, Muscle (MEAN) [4]: 0.11 % of injected dose per gram of
- biodistribution, Ovary (MEAN) [4]: 0.08 % of injected dose per gram of
- biodistribution, Pancreas (MEAN) [4]: 0.03 % of injected dose per gram of
- biodistribution, Salivary gland (MEAN) [4]: 0.14 % of injected dose per gram of
- biodistribution, Spleen (MEAN) [4]: 10.63 % of injected dose per gram of
- biodistribution, Uterus (MEAN) [4]: 0.34 % of injected dose per gram of
- accumulation of the free radioactive tracers in the lungs (Tables 2 to 5 (2 to 24 h), free tracers): strong accumulation

SMILES: CCCCCCCCCCCCCCCCCCN1/C(=C/C=C/C=C/C2=[N+](CCCCCCCCCCCCCCCCCC)c3ccccc3C2(C)C)C(C)(C)c2ccccc21.[O-][Cl+3]([O-])([O-])[O-] [DiD, l,r-dioctadécyl-3,3,3′,3′-tetramethylindodicarbocyanine (DiD) perchlorate]
- fluorescence intensity, Adrenal glands (MEAN) [1]: 730.45 photons per pixel, reduced to
- fluorescence intensity, Brain (MEAN) [1]: 439.56 photons per pixel, reduced to
- fluorescence intensity, Fat (MEAN) [1]: 280.30 photons per pixel, reduced to
- fluorescence intensity, Heart (MEAN) [1]: 487.37 photons per pixel, reduced to
- fluorescence intensity, Intestine (MEAN) [1]: 451.58 photons per pixel, reduced to
- fluorescence intensity, Kidney (MEAN) [1]: 862.35 photons per pixel, reduced to
- fluorescence intensity, Liver (MEAN) [1]: 2477.20 photons per pixel, reduced to
- fluorescence intensity, Lung (MEAN) [1]: 848.08 photons per pixel, reduced to
- fluorescence intensity, Muscle (MEAN) [1]: 211.84 photons per pixel, reduced to
- fluorescence intensity, Ovary (MEAN) [1]: 954.70 photons per pixel, reduced to
- fluorescence intensity, Pancreas (MEAN) [1]: 466.58 photons per pixel, reduced to
- fluorescence intensity, Salivary gland (MEAN) [1]: 399.58 photons per pixel, reduced to
- fluorescence intensity, Spleen (MEAN) [1]: 1162.07 photons per pixel, reduced to
- fluorescence intensity, Uterus (MEAN) [1]: 694.28 photons per pixel, reduced to
- fluorescence intensity, Adrenal glands (MEAN) [2]: 208.14 photons per pixel, reduced to
- fluorescence intensity, Brain (MEAN) [2]: 116.17 photons per pixel, reduced to
- fluorescence intensity, Fat (MEAN) [2]: 234.61 photons per pixel, reduced to
- fluorescence intensity, Heart (MEAN) [2]: 346.63 photons per pixel, reduced to
- fluorescence intensity, Intestine (MEAN) [2]: 363.09 photons per pixel, reduced to
- fluorescence intensity, Kidney (MEAN) [2]: 573.78 photons per pixel, reduced to
- fluorescence intensity, Liver (MEAN) [2]: 2293.21 photons per pixel, reduced to
- fluorescence intensity, Lung (MEAN) [2]: 433.52 photons per pixel, reduced to
- fluorescence intensity, Muscle (MEAN) [2]: 108.34 photons per pixel, reduced to
- fluorescence intensity, Ovary (MEAN) [2]: 250.27 photons per pixel, reduced to
- fluorescence intensity, Pancreas (MEAN) [2]: 191.73 photons per pixel, reduced to
- fluorescence intensity, Salivary gland (MEAN) [2]: 232.98 photons per pixel, reduced to
- fluorescence intensity, Spleen (MEAN) [2]: 3224.12 photons per pixel, reduced to
- fluorescence intensity, Uterus (MEAN) [2]: 506.03 photons per pixel, reduced to
- fluorescence intensity, Adrenal gland (MEAN) [3]: 1683.36 photons per pixel, reduced to
- fluorescence intensity, Brain (MEAN) [3]: −24.23 photons per pixel, reduced to
- fluorescence intensity, Fat (MEAN) [3]: 295.69 photons per pixel, reduced to
- fluorescence intensity, Heart (MEAN) [3]: 186.72 photons per pixel, reduced to
- fluorescence intensity, Intestine (MEAN) [3]: 505.69 photons per pixel, reduced to
- fluorescence intensity, Kidney (MEAN) [3]: 382.29 photons per pixel, reduced to
- fluorescence intensity, Liver (MEAN) [3]: 2954.59 photons per pixel, reduced to
- fluorescence intensity, Lung (MEAN) [3]: 370.94 photons per pixel, reduced to
- fluorescence intensity, Muscle (MEAN) [3]: 93.88 photons per pixel, reduced to
- fluorescence intensity, Ovary (MEAN) [3]: 729.53 photons per pixel, reduced to
- fluorescence intensity, Pancreas (MEAN) [3]: 101.87 photons per pixel, reduced to
- fluorescence intensity, Salivary gland (MEAN) [3]: 271.01 photons per pixel, reduced to
- fluorescence intensity, Spleen (MEAN) [3]: 3403.29 photons per pixel, reduced to
- fluorescence intensity, Uterus (MEAN) [3]: 665.40 photons per pixel, reduced to
- fluorescence intensity, Adrenal gland (MEAN) [4]: 653.68 photons per pixel, reduced to
- fluorescence intensity, Brain (MEAN) [4]: 57.68 photons per pixel, reduced to
- fluorescence intensity, Fat (MEAN) [4]: 344.99 photons per pixel, reduced to
- fluorescence intensity, Heart (MEAN) [4]: 285.67 photons per pixel, reduced to
- fluorescence intensity, Intestine (MEAN) [4]: 354.94 photons per pixel, reduced to
- fluorescence intensity, Kidney (MEAN) [4]: 397.90 photons per pixel, reduced to
- fluorescence intensity, Liver (MEAN) [4]: 2663.45 photons per pixel, reduced to
- fluorescence intensity, Lung (MEAN) [4]: 300.36 photons per pixel, reduced to
- fluorescence intensity, Muscle (MEAN) [4]: 289.03 photons per pixel, reduced to
- fluorescence intensity, Ovary (MEAN) [4]: 989.32 photons per pixel, reduced to
- fluorescence intensity, Pancreas (MEAN) [4]: 158.45 photons per pixel, reduced to
- fluorescence intensity, Salivary gland (MEAN) [4]: 187.28 photons per pixel, reduced to
- fluorescence intensity, Spleen (MEAN) [4]: 3880.70 photons per pixel, reduced to
- fluorescence intensity, Uterus (MEAN) [4]: 636.69 photons per pixel, reduced to
- accumulation in the liver and the spleen, tracer DiD alone (Tables 2 to 5 (2 to 24 h), free tracer): Strong accumulation
